Results published in PubChem BioAssay (NCI).
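The compound was tested at five concentrations on cells cultured in 96-well plates, with a 48-hour exposure period. At the GI50, growth is halved. Definition used: TGI = concentration required for complete inhibition of growth.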

Tested on: MALME-3M melanoma
Experiment: NCI tumour cell line growth inhibition, 48 h

Row | SMILES | TGI | GI50
1 | O=C1C2[C@@H](C(=O)N1c1ccc(Br)cc1)C13C(=CC2([N+](=O)[O-])[C@@H]2C(=O)N(c4ccc(Br)cc4)C(=O)[C@@H]21)c1ccccc1N3c1ccccc1 (stereo not given in full) | > 100 µM | 
2 | CCOC(=O)C1=C(Nc2ccc(Br)cc2)OCC1=O | > 100 µM | 
3 | CCOc1ccc(N=Cc2c3ccccc3nc3ccccc23)cc1 | > 100 µM | 
4 | Nc1ccc(C2=N/C(=C\c3cccc(N)c3)C(=O)O2)cc1 | > 100 µM | 
5 | CC(=O)[CH-]C(=O)c1ccccc1.CC(=O)[CH-]C(=O)c1ccccc1.O=S(=O)([O-])c1cc([O-])c2c([O-])cc(S(=O)(=O)[O-])cc2c1.[Na+].[Ti+4] | > 100 µM | 84.5 µM
6 | NCCN.O=C([O-])[O-].O=C([O-])[O-].[Co+3].[K+] | > 100 µM | > 100 µM
7 | C1=NC(N(Cc2ccccc2)Cc2ccccc2)N(Cc2ccccc2)N1 (stereo not given) | 25.8 µM | 

Tested on: UACC-257 melanoma
Experiment: NCI tumour cell line growth inhibition, 48 h

Row | SMILES | TGI | GI50
8 | CCc1cccc(C)c1NC(=O)CC1C(=O)Nc2ccccc2S1=O (stereo not given) | 86.5 µM | 
9 | Cc1ccc(N2C(=O)N(c3ccc(C)cc3)C3(SC=NN3C)C2=O)cc1 (stereo not given) | > 100 µM | 
10 | O=C1c2ccc3c4ccccc4n(-c4ccccc4)c3c2C(=O)N1c1ccc(Cl)cc1 | > 100 µM | 
11 | Cc1ccc2c(c1-c1ccccc1)C(=O)OC2 | > 100 µM | 
12 | CCC[CH2][Sn]1([CH2]CCC)[O]CC(COc2c(Cl)cc(Cl)cc2Cl)[O]1 (stereo not given) | 2.33 µM | 1.11 µM
13 | NC(CCc1ncc(C(=O)O)s1)C(=O)O (stereo not given) | > 100 µM | 
14 | CSc1ccc2c(cc1=O)[C@@H](NC(=O)c1cc(O)c(O)c(O)c1)CCc1cc(O)c(O)c(O)c1-2 | 34.3 µM | 
15 | COc1cc(-c2nnc3n2NC=C(C(=O)O)S3)cc(OC)c1OC | > 100 µM | 
16 | C[P+](C)(C)c1ccccc1 | > 100 µM | 
17 | O=C1c2ccccc2C(=O)N1C/C=N/NS(=O)(=O)c1ccc(Br)cc1 | > 100 µM | 
18 | COc1ccc(-c2noc(N)c2-c2cc(OC)c3c(c2)OCO3)cc1 | > 100 µM | 5.87 µM
19 | NC(=O)c1cn(Cc2ccccc2)c(=O)n1Cc1ccccc1 | > 100 µM | 
20 | CCOC(=O)C(C)(c1c(C)[nH]c2ccccc12)c1c(C)[nH]c2ccccc12 | 28 µM | 
21 | Cc1c(Cl)cccc1NC(=O)c1cccc([N+](=O)[O-])c1O | 38.8 µM | 
22 | CC1COS(=O)O1 (stereo not given) | > 100 µM | 
23 | CC1CCC(C(C)(C)c2ccccc2)C(=O)C1 (stereo not given) | > 100 µM | 

Row | SMILES | TGI | GI50
24 | O=C1CC2CCN(C(=O)c3ccccc3)CC2CCN1 (stereo not given) | > 100 µM | 
25 | O=C1C=CC(=CC=C2C=CN(CCCCCCCCCCC(=O)NCCCCCCCCCCCC(=O)O)C=C2)C=C1 | > 100 µM | 
26 | N#Cc1c(-c2ccco2)cc(-c2ccc(N)cc2)[nH]c1=O | > 100 µM | 
27 | C=CCC1(C)CCCCC1(O)CS(=O)c1ccccc1 (stereo not given) | > 100 µM | 
28 | C1COCCSC2=C(SCCO1)SC(=C1SC3=C(SCCOCCOCCS3)S1)S2 | > 100 µM | 
29 | COc1cc(/C=N\O[Si](C)(C)C(C)(C)C)ccc1O[Si](C)(C)C(C)(C)C | > 100 µM | 
30 | CC12CCC(=O)N1c1cccnc1N2 (stereo not given) | > 100 µM | 
31 | COc1cc2c(cc1OC)C1Cc3cc(OC)c(OC)cc3N1CC2 (stereo not given) | > 100 µM | 
32 | O=C1C2[C@@H](C(=O)N1c1ccc(Br)cc1)C13C(=CC2([N+](=O)[O-])[C@@H]2C(=O)N(c4ccc(Br)cc4)C(=O)[C@@H]21)c1ccccc1N3c1ccccc1 (stereo not given in full) | > 100 µM | 
33 | CCOC(=O)C1=C(Nc2ccc(Br)cc2)OCC1=O | > 100 µM | 
34 | CCOc1ccc(N=Cc2c3ccccc3nc3ccccc23)cc1 | > 100 µM | 
35 | CC(=O)[CH-]C(=O)c1ccccc1.CC(=O)[CH-]C(=O)c1ccccc1.O=S(=O)([O-])c1cc([O-])c2c([O-])cc(S(=O)(=O)[O-])cc2c1.[Na+].[Ti+4] | > 100 µM | 77.1 µM
36 | Cc1cc(NCCCCNc2ccnc3cc(Cl)ccc23)nc(Nc2ccc(C(=O)N3CCCCC3)cc2)n1 | 3.42 µM | 1.89 µM
37 | NCCN.O=C([O-])[O-].O=C([O-])[O-].[Co+3].[K+] | > 100 µM | > 100 µM
38 | C1=NC(N(Cc2ccccc2)Cc2ccccc2)N(Cc2ccccc2)N1 (stereo not given) | 33.5 µM | 

Tested on: SK-OV-3 ovarian
Experiment: NCI tumour cell line growth inhibition, 48 h

Row | SMILES | TGI | GI50
39 | Cc1ccc(N2C(=O)N(c3ccc(C)cc3)C3(SC=NN3C)C2=O)cc1 (stereo not given) | > 100 µM | 
40 | O=C1c2ccc3c4ccccc4n(-c4ccccc4)c3c2C(=O)N1c1ccc(Cl)cc1 | > 100 µM | 
41 | Cc1ccc2c(c1-c1ccccc1)C(=O)OC2 | > 100 µM | 
42 | CCC[CH2][Sn]1([CH2]CCC)[O]CC(COc2c(Cl)cc(Cl)cc2Cl)[O]1 (stereo not given) | 12.3 µM | 4.18 µM
43 | NC(CCc1ncc(C(=O)O)s1)C(=O)O (stereo not given) | > 100 µM | 
44 | CSc1ccc2c(cc1=O)[C@@H](NC(=O)c1cc(O)c(O)c(O)c1)CCc1cc(O)c(O)c(O)c1-2 | > 100 µM | 
45 | COc1cc(-c2nnc3n2NC=C(C(=O)O)S3)cc(OC)c1OC | > 100 µM | 
46 | C[P+](C)(C)c1ccccc1 | > 100 µM | 
47 | O=C1c2ccccc2C(=O)N1C/C=N/NS(=O)(=O)c1ccc(Br)cc1 | > 100 µM | 
48 | COc1ccc(-c2noc(N)c2-c2cc(OC)c3c(c2)OCO3)cc1 | > 38.3 µM | 4.54 µM
49 | NC(=O)c1cn(Cc2ccccc2)c(=O)n1Cc1ccccc1 | > 100 µM | 
50 | CCOC(=O)C(C)(c1c(C)[nH]c2ccccc12)c1c(C)[nH]c2ccccc12 | 52.9 µM | 
51 | Cc1c(Cl)cccc1NC(=O)c1cccc([N+](=O)[O-])c1O | > 80.2 µM | 
52 | CC1COS(=O)O1 (stereo not given) | > 100 µM | 
53 | CC1CCC(C(C)(C)c2ccccc2)C(=O)C1 (stereo not given) | > 100 µM | 
54 | O=C1CC2CCN(C(=O)c3ccccc3)CC2CCN1 (stereo not given) | > 100 µM | 
55 | O=C1C=CC(=CC=C2C=CN(CCCCCCCCCCC(=O)NCCCCCCCCCCCC(=O)O)C=C2)C=C1 | > 100 µM | 
56 | N#Cc1c(-c2ccco2)cc(-c2ccc(N)cc2)[nH]c1=O | > 100 µM | 
57 | C=CCC1(C)CCCCC1(O)CS(=O)c1ccccc1 (stereo not given) | > 100 µM | 
58 | C1COCCSC2=C(SCCO1)SC(=C1SC3=C(SCCOCCOCCS3)S1)S2 | > 100 µM | 
59 | COc1cc(/C=N\O[Si](C)(C)C(C)(C)C)ccc1O[Si](C)(C)C(C)(C)C | > 100 µM | 
60 | CC12CCC(=O)N1c1cccnc1N2 (stereo not given) | > 100 µM | 
61 | COc1cc2c(cc1OC)C1Cc3cc(OC)c(OC)cc3N1CC2 (stereo not given) | > 100 µM | 
62 | CCOC(=O)C1=C(Nc2ccc(Br)cc2)OCC1=O | > 100 µM | 
63 | CCOc1ccc(N=Cc2c3ccccc3nc3ccccc23)cc1 | > 100 µM | 
64 | Nc1ccc(C2=N/C(=C\c3cccc(N)c3)C(=O)O2)cc1 | > 100 µM | 
65 | CC(=O)[CH-]C(=O)c1ccccc1.CC(=O)[CH-]C(=O)c1ccccc1.O=S(=O)([O-])c1cc([O-])c2c([O-])cc(S(=O)(=O)[O-])cc2c1.[Na+].[Ti+4] | > 100 µM | > 100 µM
66 | Cc1cc(NCCCCNc2ccnc3cc(Cl)ccc23)nc(Nc2ccc(C(=O)N3CCCCC3)cc2)n1 | 6.13 µM | 2.78 µM
67 | NCCN.O=C([O-])[O-].O=C([O-])[O-].[Co+3].[K+] | > 100 µM | > 100 µM
68 | C1=NC(N(Cc2ccccc2)Cc2ccccc2)N(Cc2ccccc2)N1 (stereo not given) | 67.2 µM | 
